Each structure is given as a SMILES string. Counter-ions that a name gives are not always drawn.

One assay has as its target T1, human PPARγ receptor (Homo sapiens, UniProt P37231).
T1 construct: corresponding to Ser204-Tyr506 for human PPARγ1 receptor and human PPARγ2; expressed in transfected cells; host or cells: CV-1 cells (pSG5-based expression vector)
T1 sequence (P37231 204-505 limits assumed): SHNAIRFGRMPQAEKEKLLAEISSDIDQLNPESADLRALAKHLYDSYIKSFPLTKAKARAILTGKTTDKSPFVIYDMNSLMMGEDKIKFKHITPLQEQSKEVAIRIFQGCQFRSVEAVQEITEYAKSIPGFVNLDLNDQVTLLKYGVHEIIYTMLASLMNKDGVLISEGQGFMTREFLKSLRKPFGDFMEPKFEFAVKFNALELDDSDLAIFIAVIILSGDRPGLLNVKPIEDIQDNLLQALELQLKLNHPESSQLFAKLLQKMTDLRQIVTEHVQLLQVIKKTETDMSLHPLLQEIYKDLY
As to the kind of experiment: Luciferase reporter assay of PPARγ agonist activity (Gal4-PPARγ chimera receptor in CV-1 cells). As to conditions: luciferase activity with 1 μM Pioglitazone taken as 100, read-out: PPAR γ agonist activity, relative activity; for Emax at 0.1 µM: CV-1, 0.1 μM compound; for Emax at 1 µM: CV-1, 1 μM compound; for Emax at 10 µM: CV-1, 10 μM compound. The format is cell-based. The protocol: (§1) Measurement of PPARα Agonist Activity and PPARγ Agonist Activity
(§2) 1. Materials for Assay of Luciferase Using Human PPARα and PPARγ Receptors
(§3) The entire procedure was carried out according to the fundamental methods of genetic engineering and the ordinary method in the yeast one-hybrid or two-hybrid system was applied.
(§4) PGL2-UAS5-TK-luc was prepared as a reporter plasmid carrying a response sequence of Gal4 protein as a basic transcription factor of yeast, an enhancer sequence with five repeat part of UAS, a luciferase gene (luc) under the control of timidine kinase (TK) promoter. Specifically, a DNA fragment encoding a TK promoter (−105/+51) on the downstream side of an enhancer sequence comprising two time repeat of UAS was amplified by PCR using pRL-TK carrying a TK promoter (Promega, Trade name: Catalogue No. E2241) as the template and the primers: […]
(§5) After the fragment was cleaved with XhoI-Hind III, pGL2-UAS2-TK-luc was obtained by inserting the resultant fragment into the XhoI-Hind III site located on the upstream side of a luciferase structural gene on pGL2-Basic vector (Promega, Trade name: Catalogue No. E1641).
(§6) After cleavage of a synthetic DNA as an enhancer sequence comprising three time repeat of Gal4 response sequence (SEQ ID NO: 3): 5′-ATTGGTAC([…])×3 AGATCTCGAC) using KpnI and BgIII was carried out, pGL2-UAS5-TK-luc was prepared by inserting the resulting fragment into the KpnI-BgIIIb site of pGL2-UAS2-TK-luc.
(§7) A vector for expression of a chimera receptor protein, in which a ligand binding region of an internuclear receptor human PPARα or PPARγ receptor was fused with the carboxyl terminal of a DNA binding region of yeast Ga14 protein, was prepared as follows:
(§8) The structural gene of pSG5 (STRATAGENE, Trade Name: Catalogue No. 216201) as the basic expression vector was changed for the chimera receptor except that the promoter-enhancer region was maintained as it was.
(§9) The DNA encoding the ligand binding region of the human PPARα or PPARγ receptor was fused on the downstream side of the DNA encoding the DNA binding region and the amino acid sequence from 1 to 147 positions of Ga14 protein so that their reading frames were fitted and the resulting fused DNA was inserted into pSG5 (trade name) on the down stream side of the promoter-enhancer region. In this step, the DNA sequence was arranged so that a signal for transfer into the nucleus (Ala Pro Lys Lys Lys Arg Lys Val Gly (SEQ ID: No: 4) derived from SV-40T antigen was located on the amino terminal of the ligand binding region of PPARα or PPARγ receptor in order to localize the chimera receptor in the nucleus.
(§10) Based on comparison of the human PPAR receptors described in R. Mukherjee et al., [see J. Steroid Biochem. Molec. Biol., Vol. 51, p157 (1994)] and M. E. Green et al., [see Gene Expression, Vol. 4, p281 (1995))], as the structural gene part used for the ligand binding region PPARα or PPARγ, the human PPARα ligand binding region: Ser167-Tyr468; and the PPARγ ligand binding region: Ser176-Tyr478 were used, which had the same sequences corresponding to Ser204-Tyr506 for human PPARγ1 receptor and human PPARγ2, respectively.
(§11) In order to monitor influence against the basic transcription, an expression vector was prepared which carried a DNA encoding only the DNA binding region and the amino acid sequence from 1 to 147 position of Ga14 protein defective in its PPAR ligand binding region and a signal for transfer into the nucleus of SV-40T-antigen.
(§12) 2. Assay of Luciferase Using Human PPARα or PPARγ Receptor
(§13) CV-1 cells used as a host cell were cultivated according to an ordinary method. Specifically, a fetal bovine serum (Intergent, Catalogue No. 1020-90) was added to a Dulbecco's modified Eagle's medium (DMEM) so that the final concentration became 10%. Further, penicillin G (50 U/ml) and streptomycin sulfate (50 μg/ml) were added. Cultivation was conducted in the resulting medium in a 5% carbon dioxide gas at 37° C. […]
In general terms: In a reporter assay the amount or activity of a reporter protein is the signal.

The next assay addresses T2, human PPARα receptor (Homo sapiens, UniProt Q07869).
T2 construct: expressed in transfected cells; host or cells: CV-1 cells (pSG5-based expression vector)
T2 sequence (Q07869 167-468): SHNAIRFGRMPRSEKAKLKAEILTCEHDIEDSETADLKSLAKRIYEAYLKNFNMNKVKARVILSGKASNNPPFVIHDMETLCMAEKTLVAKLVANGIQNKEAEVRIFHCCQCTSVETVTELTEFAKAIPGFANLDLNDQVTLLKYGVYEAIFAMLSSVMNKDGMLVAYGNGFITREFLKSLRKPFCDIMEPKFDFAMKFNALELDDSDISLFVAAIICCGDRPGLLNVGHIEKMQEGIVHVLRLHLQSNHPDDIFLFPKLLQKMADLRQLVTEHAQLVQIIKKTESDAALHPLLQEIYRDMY
As to the kind of experiment: Luciferase reporter assay of PPARα agonist activity (Gal4-PPARα chimera receptor in CV-1 cells). The format is cell-based. To be noted: luciferase activity with 10 μM Wy-14,643 taken as 100, read-out: PPARα agonist activity, relative activity; for Emax at 0.1 µM: CV-1, 0.1 μM compound; for Emax at 1 µM: CV-1, 1 μM compound; for Emax at 10 µM: CV-1, 10 μM compound. The protocol:
as §1, §2, §3, §4, §5, §6, §7, §8, §9, §10, §11, §12, §13

In the case of `CCOC(=O)C(Cc1ccc(OCc2cnc3ccc(OC)cc3c2OC(C)C)cc1)OCC` (stereo not drawn) [Example 1 (101), ethyl 2-ethoxy-3-{[4-(4-isopropoxy-6-methoxyquinoline-3-yl)methyloxy]phenyl}propanoate], on human PPARγ receptor, the Emax at 0.1 µM worked out at 98.6%, the Emax at 1 µM was found to be 127% and the Emax at 10 µM amounted to 102%. Further, at human PPARα receptor, the Emax at 0.1 µM came out at 0.2%, the Emax at 1 µM came to 0.9% and the Emax at 10 µM was determined as 28.7%.
As for `CCOC(Cc1ccc(OCc2cnc3cc(C)cc(C)c3c2OC(C)C)cc1)C(=O)O` (stereo not drawn) [Example 5 (71), 2-ethoxy-3-{[4-(4-isopropoxy-5,7-dimethylquinoline-3-yl)methyloxy]phenyl}propanoic acid], at human PPARγ receptor, the Emax at 0.1 µM stood at 0.3%, the Emax at 1 µM is 0.4% and the Emax at 10 µM was determined as 11.6%. On human PPARα receptor, the Emax at 0.1 µM was determined as 0.3%, the Emax at 1 µM stood at 0.5% and the Emax at 10 µM amounted to 28.4%.
Take `CCOC(Cc1ccc(OCc2cnc3ccc(CC)cc3c2OC(C)C)cc1)C(=O)O` (stereo not drawn) [Example 6 (67), 2-ethoxy-3-{[4-(4-isopropoxy-6-ethylquinoline-3-yl)methyloxy]phenyl}propanoic acid]: on human PPARγ receptor, the Emax at 0.1 µM turned out to be 122%, the Emax at 1 µM was determined as 140% and the Emax at 10 µM worked out at 125%. For the same molecule, on human PPARα receptor, the Emax at 0.1 µM was 5.7%, the Emax at 1 µM is 47.1% and the Emax at 10 µM came to 74%.
In the case of `CCCCCCCCOc1c(COc2ccc(CC(OCC)C(=O)O)cc2)cnc2ccc(OC)cc12` (stereo not drawn) [Example 7 (63), 2-ethoxy-3-{[4-(4-octyloxy-6-methoxyquinoline-3-yl)methyloxy]phenyl}propanoic acid], on human PPARγ receptor, the Emax at 0.1 µM came out at 13.5%, the Emax at 1 µM was 63.3% and the Emax at 10 µM came out at 114%. Also, at human PPARα receptor, the Emax at 0.1 µM was determined as 0.4%, the Emax at 1 µM came out at 4.5% and the Emax at 10 µM came out at 64.4%.
`CCOC(Cc1ccc(OCc2cnc3cc(OC)c(OC)cc3c2OC(C)C)cc1)C(=O)O` (stereo not drawn) [Example 8 (65), 2-ethoxy-3-{[4-(4-isopropoxy-6,7-dimethoxyquinoline-3-yl)methyloxy]phenyl}propanoic acid]: on human PPARγ receptor, the Emax at 0.1 µM was determined as 1.3%, the Emax at 1 µM was determined as 13% and the Emax at 10 µM is 107%. On human PPARα receptor, the Emax at 0.1 µM came out at 0.3%, the Emax at 1 µM amounted to 0.3% and the Emax at 10 µM turned out to be 1.5%.
For `CCOC(Cc1cccc(OCc2cnc3ccc(OC)cc3c2OC(C)C)c1)C(=O)O` (stereo not drawn) [Example 20 (114), 2-ethoxy-3-{[3-(4-isopropoxy-6-methoxyquinoline-3-yl)methyloxy]phenyl}propanoic acid], on human PPARγ receptor, the Emax at 0.1 µM turned out to be 9.3%, the Emax at 1 µM turned out to be 91% and the Emax at 10 µM came to 110%.
Turning to `CCOC(Cc1ccc(OC)c(OCc2cnc3ccc(OC)cc3c2OC(C)C)c1)C(=O)O` (stereo not drawn) [Example 21 (118), 2-ethoxy-3-{[3-(4-isopropoxy-6-methoxyquinoline-3-yl)methyloxy]-4-methoxyphenyl}propanoic acid], on human PPARγ receptor, the Emax at 0.1 µM is 1.4%, the Emax at 1 µM is 1.9% and the Emax at 10 µM is 22.4%.
In the same order, the values of `COC(=O)C(Cc1ccc(OCc2cnc3ccc(OC)cc3c2OC(C)C)cc1)C(=O)OC` [Example 22 (120), dimethyl{[4-(4-isopropoxy-6-methoxyquinoline-3-yl)methyloxy]phenyl}methylmalonate hydrochloride] are 3.5%, 62.3% and 108%.
For `CCC(=O)C(Cc1ccc(OCc2cnc3ccc(OC)cc3c2OC(C)C)cc1)C(=O)OC` (stereo not drawn) [Example 23 (137), methyl 2-{[4-(4-isopropoxy-6-methoxyquinoline-3-yl)methyloxy]phenylmethyl}-3-oxopentanoate hydrochloride], on human PPARγ receptor, the Emax at 0.1 µM was 2.8%, the Emax at 1 µM stood at 30.5% and the Emax at 10 µM amounted to 63.1%.
Turning to `CNC(=O)/C(=C/c1ccc(OCc2cnc3ccc(OC)cc3c2OC(C)C)cc1)C(C)=O` [Example 25 (144), 2-{[4-(4-isopropoxy-6-methoxyquinoline-3-yl)methyloxy]phenylmethylene}-3-oxobutanoic acid N-methylamide hydrochloride], at human PPARγ receptor, the Emax at 0.1 µM is 0.7%, the Emax at 1 µM stood at 1.9% and the Emax at 10 µM stood at 6.2%.
Take `CCOC(=O)C(Cc1cccc(OCc2cnc3ccc(OC)cc3c2OC(C)C)c1)C(=O)OCC` [Example 27 (128), diethyl{[3-(4-isopropoxy-6-methoxyquinoline-3-yl)methyloxy]phenyl}methylmalonate hydrochloride]: on human PPARγ receptor, the Emax at 0.1 µM is 1.2%, the Emax at 1 µM was determined as 2.1% and the Emax at 10 µM came to 42.5%.
In the same order, the values of `CCOC(=O)C(Cc1ccc(OC)c(OCc2cnc3ccc(OC)cc3c2OC(C)C)c1)C(=O)OCC` [Example 28 (129), diethyl{[3-(4-isopropoxy-6-methoxyquinoline-3-yl)methyloxy]-4-methoxyphenyl}methylmalonate hydrochloride] are 1.3%, 2.1% and 14.7%.

Values taken from patent US20030212100A1, “Quinoline derivatives and medicinal use thereof” (priority 2000, published 2003).
